Results as given in patent publication US7078406B2, “Substituted diphenyloxazoles, the synthesis thereof, and the use thereof as fluorescence probes” (Johnson & Johnson Pharmaceutical Research & Development, …, priority 2001, dated 2006).
“Also recorded” adds a separate entry of the source.

Columns and labels:
[1] = target: T1, PPAR-gamma (Homo sapiens, UniProt P37231); test: Fluorescence curves on heating in a Thermofluor instrument (protein unfolding transition); settings: 100 μM dye, 0.2 mg/mL protein, 25 mM HEPES pH 7.9, 200 mM NaCl, 5 mM dithiothreitol, 1 mM EDTA, 384-well plate
T1 sequence (P37231 1-505): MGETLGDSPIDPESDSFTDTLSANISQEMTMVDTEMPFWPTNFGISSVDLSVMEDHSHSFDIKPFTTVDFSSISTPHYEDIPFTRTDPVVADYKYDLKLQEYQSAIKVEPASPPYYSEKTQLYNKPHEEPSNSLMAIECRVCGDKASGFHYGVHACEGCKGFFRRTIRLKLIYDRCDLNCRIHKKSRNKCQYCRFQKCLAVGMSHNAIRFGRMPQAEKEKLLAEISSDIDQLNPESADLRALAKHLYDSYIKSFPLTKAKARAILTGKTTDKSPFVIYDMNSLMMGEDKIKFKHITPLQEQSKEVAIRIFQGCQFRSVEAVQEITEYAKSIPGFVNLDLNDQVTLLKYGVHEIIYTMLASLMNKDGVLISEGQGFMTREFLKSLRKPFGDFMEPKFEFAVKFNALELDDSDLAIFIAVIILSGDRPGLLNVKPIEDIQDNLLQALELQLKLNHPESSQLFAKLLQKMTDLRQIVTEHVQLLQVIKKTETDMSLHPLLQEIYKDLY
Excerpt: FIG. 3 provides the individual fluorescent curves for three dyes 4-[5-(4-dimethylaminophenyl)oxazol-2-yl]-N-(2-guanidinoethyl)-benzene-sulfonamide, 5-(4″-dimethylaminophenyl)-2-(4′-phenyl)oxazole sulfonate, and 1,8-anilino-napthylene sulfonate) when analyzed in a Thermofluor® instrument using the protein PPAR-gamma as described in Example 3.
4-[5-(4-dimethylaminophenyl)oxazol-2-yl]-N-(2-guanidinoethyl)-benzenesulfonamide, 5-(4″-dimethylaminophenyl)-2-(4′-phenyl)oxazole sulfonate, and 1,8-anilino-napthylene sulfonate were mixed with a protein, PPAR-gamma, each in separate wells of a polypropylene 384-well plate. Each solution consisted of 100 μM of each dye mixed with 0.2 mg/mL protein in a buffer consisting of 25 mM HEPES pH 7.9, 200 mM NaCl, 5 mM dithiothreitol, and 1 mM EDTA. Individual fluorescence curves generated by heating to different temperatures in a Thermofluor® instrument are shown in FIG. 3.

[2] = target: thrombin (Homo sapiens, UniProt P00734); test: Fluorescence emission spectra of dye mixed with native and heat-unfolded thrombin; settings: for emission maximum (comparison dyes): comparison value, conditions not stated
Experimental: FIG. 2 provides the fluorescence emission spectra of 4-[5-(4-dimethylaminophenyl)oxazol-2-yl]-N-(2-guanidinoethyl)-benzenesulfonamide (10 μM) mixed with thrombin (0.1 mg/mL) in buffer (50 mM HEPES, pH 7.5, 150 mM NaCl). The emission spectrum indicated by the squares was acquired with native (folded) thrombin, immediately after preparing the solution. The emission spectrum indicated by the triangles was obtained after heating the solution to 80° C. for five minutes to unfold the thrombin protein.
(§1) 4-[5-(4-dimethylaminophenyl)oxazol-2-yl]-N-(2-guanidinoethyl)-benzenesulfonamide was mixed with different solvents to yield a final dye concentration of 10 μM. The spectra of this dye in methanol (MeOH), dimethyl sulfoxide (DMSO), and aqueous buffer (50 mM HEPES, pH7.5, 150 mM sodium chloride) are shown in FIG. 1. This figure illustrates the marked enhancement in emission intensity (200–500 fold) observed for this dye when it is shifted from an aqueous environment to a nonaqueous environment. The 4-[5-(4-dimethylaminophenyl)oxazol-2-yl]-N-(2-guanidinoethyl)benzenesulfonamide was mixed with a 0.1 mg/mL solution of thrombin, a protein, in buffer (50 mM HEPES, pH7.5, 150 mM sodium chloride), to yield a final dye concentration of 10 μM. The fluorescence emission spectra of this solution were recorded both immediately after mixing and also following heating of the solution to 80° C. for 5 minutes.

[3] = Fluorescence emission spectra of the dye in different solvents; assay type: physicochemical; settings: 10 μM dye; shifted from aqueous buffer (50 mM HEPES, pH7.5, 150 mM sodium chloride) to nonaqueous environment (MeOH, DMSO)
Experimental: FIG. 1A provides the fluorescence emission spectra of 4-[5-(4-dimethylaminophenyl)oxazol-2-yl]-N-(2-guanidinoethyl)-benzenesulfonamide in methanol and in dimethylsulfoxide. Also provided is the fluroescence emission spectrum of the buffer. FIG. 1B provides part of the spectrum of FIG. 1A, showing the range from 0 to 10,000 cps.
as §1

SMILES: CN(C)c1ccc(-c2cnc(-c3ccc(S(=O)(=O)O)cc3)o2)cc1 [5-(4″-dimethylaminophenyl)-2-(4′-phenyl)oxazole sulfonate, reference compound]
- measurable unfolding transition of the protein [1]: fail to produce a measurable transition
- emission maximum (comparison dyes) [2]: approximately 460 nm

SMILES: O=S(=O)(O)c1cccc2cccc(Nc3ccccc3)c12 [1,8-anilinonaphthylene sulfonate, reference compound]
- measurable unfolding transition of the protein [1]: fail to produce a measurable transition
- emission maximum (comparison dyes) [2]: approximately 460 nm

SMILES: CN(C)c1ccc(-c2cnc(-c3ccc(S(=O)(=O)NCCNC(=N)N)cc3)o2)cc1 [4-[5-(4-dimethylaminophenyl)oxazol-2-yl]-N-(2-guanidinoethyl)benzenesulfonamide]
- measurable unfolding transition of the protein [1]: can be readily monitored
- emission maximum of dye bound to unfolded protein ([2]; 10 μM dye, 0.1 mg/mL thrombin, 50 mM HEPES pH7.5, 150 mM NaCl, after heating to 80° C. for 5 minutes): 520 nm
- change in fluorescence emission on binding to unfolded protein ([2]; 10 μM dye, 0.1 mg/mL thrombin, after heating to 80° C. for 5 minutes vs native): substantial enhancement in fluorescence emission; also recorded: increase in fluorescence emission
- enhancement in emission intensity [3]: 200–500 fold
